US9381518B2, “Nano-suspension process” (MERCK SHARP & DOHME CORP., priority 2011, dated 2016)
Like-named read-outs stand apart in the source and are kept apart here.

What was measured:
[1] = 90 minutes
Method: Example nano-suspensions were evaluated for particle size and particle size distribution using dynamic light scattering (DLS, Wyatt, DyanoPro Plate Reader). Results reported for particle size analysis (D50 and D90) have their ordinary meaning as understood in the art of particle-size analysis. Unless otherwise indicated, values for D50 and D90 are reported in nanometers (nm). The APC in example nano-suspensions was evaluated using high performance liquid chromatography (HPLC, Hewlett Packard, Agilent 1100). Residual metals analysis was performed using inductively coupled plasma mass spectroscopy (ICP-MS, Perkin Elmer).
The temperature of each nano-suspension was determined using a thermometer immediately after the milling time was completed. Particle size and metals content were analyzed as described herein. The nano-suspension product produced in each operation was recovered through centrifuge filtration over a 10 micron polypropylene mesh (Nanomill) or through a syringe equipped with a 20-gauge needle (acoustic mixer). In the case of the nano-suspension prepared with acoustic mixing, the YTZ milling media is sufficiently dense that it settles from the nano-suspension and permits separation by decantation without the need for separation through a mesh.

[2] = Particle size analysis (D50, D90) of nano-suspensions by dynamic light scattering; format: physicochemical; conditions: 90 minutes, PVP-K29-32/SDS in water

Residual Metals ([1]; Elan Nanomill high-shear milling): >1000 ppm
Residual Metals ([1]; Resodyn LabRAM acoustic mixer): <1 ppm
Drug nanoparticle diameter (D50) ([2]; Elan Nanomill high-shear milling, polystyrene milling beads): 354 nm
Drug nanoparticle diameter (D50) ([2]; Resodyn LabRAM acoustic mixer, YTZ milling beads): 286 nm
Compound: COc1ccc2cc([C@H](C)C(=O)O)ccc2c1 [Naproxen sodium]
